Measurements: ChEMBL document CHEMBL3856283, “Structure-based design of ester compounds to inhibit MLL complex catalytic activity by targeting mixed lineage leukemia 1 (MLL1)-WDR5 interaction” (Bioorg Med Chem, 2016)

Assays:
[1] = Antiproliferative activity against human K562 cells harboring BCR-ABL assessed as inhibition of cell viability after 72 hrs by CCK8-based colorimetric assay; assay type: functional; conditions: K562, 72 h
[2] = Antiproliferative activity against human MV4-11 cells harboring MLL-AF4 after 7 days by CellTiter-Glo luminescent cell viability Assay; assay type: functional, cell-based; conditions: MV4-11, 168 h
[3] = Antiproliferative activity against human MV4-11 cells harboring MLL-AF4 assessed as inhibition of cell viability after 72 hrs by CCK8-based colorimetric assay; assay type: functional; conditions: MV4-11, 72 h
[4] = biological target: T1, WD repeat-containing protein 5 (Homo sapiens, UniProt P61964); experiment: Inhibition of C-terminal 5-FAM-ARTEVHLRKS binding to WDR5 (unknown origin) by fluorescence polarization assay
[5] = Permeability of the compound after 4 hrs by PAMPA; assay type: ADME; conditions: read-out: permeability
[6] = biological target: T1, WD repeat-containing protein 5; experiment: Inhibition of N-terminal FITC-GSARAEVHLRKS binding to WDR5 (unknown origin) by fluorescence polarization assay
[7] = biological target: MLL1/ASH2L/RBBP5/WDR5 complex (Homo sapiens, UniProt P61964+Q03164+Q15291+Q9UBL3); experiment: Inhibition of recombinant MLL1 (unknown origin) interaction with recombinant ASH2L/RBBP5/WDR5 (unknown origin) assessed as decrease in histone methylation after 60 mins by Alpha Screen assay; assay type: protein-complex assay
[8] = tested on: K562; experiment: Selectivity ratio of IC50 for human K562 cells harboring BCR-ABL to IC50 for human MV4-11 cells harboring MLL-AF4; assay type: functional

| Compound | IC50 [4] [µM] | Papp at 4 h [5] [×10⁻⁶ cm/s] | IC50 [1] [µM] | IC50 [3] [µM] | further results |
| --- | --- | --- | --- | --- | --- |
| CCC(CC)(NC(=O)C(C)C)C(=O)N[C@@H](CCCNC(=N)N)C(=O)NC1(C(=O)NC(c2ccc(F)cc2)c2ccc(F)cc2)CCCC1 |  |  | 37.8 | 20.7 | IC50 [2]: 25 µM |
| Cc1c(F)c([N+](=O)[O-])cc(C(=O)Nc2cc(C(=O)OC3CCCCC3)ccc2N2CCN(C)CC2)c1Cl | > 0.02 |  |  |  |  |
| CC(C)OC(=O)c1ccc(N2CCN(C)CC2)c(NC(=O)c2ccc(F)c([N+](=O)[O-])c2)c1 | 1.17 | 61.4 | 58 | 13.3 |  |
| Cc1c(F)ccc(C(=O)Nc2cc(C(=O)OC(C)C)ccc2N2CCN(C)CC2)c1Cl | 0.264 | 49.8 | > 100 | 57.1 |  |
| COC(=O)c1ccc(N2CCN(C)CC2)c(NC(=O)c2cccc(OC)c2)c1 |  |  |  |  | Kd [6]: 3 µM |
| CN1CCN(c2ccc(C(=O)Oc3ccccc3)cc2NC(=O)c2ccc(F)c(N)c2)CC1 | > 20 |  |  |  |  |
| Cc1c(F)ccc(C(=O)Nc2cc(C(=O)Oc3ccccc3)ccc2N2CCN(C)CC2)c1Cl | 0.162 | 48 | 53.9 | 45.2 |  |
| CCOC(=O)c1ccc(N2CCN(C)CC2)c(NC(=O)c2ccc(F)c(C)c2Cl)c1 | 0.284 | 44.9 | 90.7 | 49.8 |  |
| CN1CCN(c2ccc(C(=O)OC3CCCCC3)cc2NC(=O)c2ccc(F)c([N+](=O)[O-])c2)CC1 | > 20 |  |  |  |  |
| Cc1c(F)ccc(C(=O)Nc2cc(C(=O)O)ccc2N2CCN(C)CC2)c1Cl | > 20 |  |  |  |  |
| COC(=O)c1ccc(N2CCN(C)CC2)c(NC(=O)c2ccc(F)c(N)c2)c1 | > 0.02 |  |  |  |  |
| COC(=O)c1ccc(N2CCN(C)CC2)c(NC(=O)c2ccc(F)c(C)c2Cl)c1 | 0.433 | 59.8 | > 100 | > 100 |  |
| CC(C)OC(=O)c1ccc(N2CCN(C)CC2)c(NC(=O)c2ccc(F)c(N)c2)c1 | > 0.02 |  |  |  |  |
| COC(=O)c1ccc(N2CCN(C)CC2)c(NC(=O)c2ccc(F)c([N+](=O)[O-])c2)c1 | 0.454 | 52.4 | 57.1 | 4.7 | Ratio IC50 [8]: 10 |
| Cc1c(F)c(N)cc(C(=O)Nc2cc(C(=O)Oc3ccccc3)ccc2N2CCN(C)CC2)c1Cl | 0.0264 | 38 | 33.4 | 66.5 | IC50 [7]: 5.4 µM |
| CN1CCN(c2ccc(C(=O)O)cc2NC(=O)c2ccc(F)c([N+](=O)[O-])c2)CC1 | > 0.02 |  |  |  |  |
| COC(=O)c1ccc(N2CCN(C)CC2)c(NC(=O)c2cc([N+](=O)[O-])c(F)c(C)c2Cl)c1 | 0.245 | 74.8 | 17.2 | 3.4 |  |

Second part, led by results:

| IC50 [4] [µM] | Papp at 4 h [5] [×10⁻⁶ cm/s] | Compound | IC50 [1] [µM] | IC50 [3] [µM] | further results |
| --- | --- | --- | --- | --- | --- |
| 0.483 | 60 | CN1CCN(c2ccc(C(=O)Oc3ccccc3)cc2NC(=O)c2ccc(F)c([N+](=O)[O-])c2)CC1 | 11.6 | 10.8 |  |
| 0.0465 | 52.9 | COC(=O)c1ccc(N2CCN(C)CC2)c(NC(=O)c2cc(N)c(F)c(C)c2Cl)c1 | > 100 | > 100 | IC50 [7]: 4.6 µM |
| > 0.02 |  | CCOC(=O)c1ccc(N2CCN(C)CC2)c(NC(=O)c2ccc(F)c([N+](=O)[O-])c2)c1 |  |  |  |
| > 20 |  | Cc1c(F)ccc(C(=O)Nc2cc(C(=O)OC3CCCCC3)ccc2N2CCN(C)CC2)c1Cl |  |  |  |
| > 0.02 |  | CN1CCN(c2ccc(C(=O)OC3CCCCC3)cc2NC(=O)c2ccc(F)c(N)c2)CC1 |  |  |  |
| 0.0588 | 5.6 | Cc1c(F)c(N)cc(C(=O)Nc2cc(C(=O)OC3CCCCC3)ccc2N2CCN(C)CC2)c1Cl | > 100 | > 100 |  |
| 0.812 | 56.3 | Cc1c(F)c([N+](=O)[O-])cc(C(=O)Nc2cc(C(=O)Oc3ccccc3)ccc2N2CCN(C)CC2)c1Cl | 15.7 | 9.9 |  |
|  | 98.7 | CC(C)NCC(O)COc1cccc2ccccc12 (stereo unspecified) [PROPRANOLOL] |  |  |  |
